Source: patent publication US12396994B2, “Compositions for improving physiological function with age” (The Regents Of The University Of Colorado, a body corporate, priority 2017, dated 2025)

What was measured:
cells = settings: reported, trehalose in cells and in mice; cited from earlier work
[1] = system: human umbilical vein endothelial cells (HUVEC); assay: Autophagy induction in HUVEC, Cyto-ID fluorescence microplate detection; assay type: cell-based; settings: 24 h
Method: First, we compiled a library of naturally occurring compounds known to enhance autophagy. Then, we calculated physiologically relevant concentrations of these compounds based on existing data (e.g., previously reported post-prandial plasma concentrations), and we tested each for its ability to induce autophagy at its calculated concentration alone and/or in combination with other candidate compounds. […] In all experiments, autophagy was assessed in human umbilical vein endothelial cells (HUVEC), because of their relevance to vascular physiological measures (in vivo measures, below). Pooled HUVEC cultures obtained from Cascade Biologics were grown in endothelial cell-specific medium (Lonza) at 37° C. in a […] incubator. Third passage cells were seeded into 96-well plates and allowed to reach 70% confluency, at which point candidate treatment compounds or combinations were applied for 24 hours. […] Autophagy was assessed using Enzo Life Sciences Cyto-ID autophagy detection reagents (fluorescence microplate detection of autophagic structures) according to manufacturers instructions on an M5 Spectramax fluorescent plate reader (Molecular Devices). Candidate AEON formulations were designated as AEON-1, -2, etc.
To identify a mixture of food-safe compounds that synergistically activates autophagy (the cellular process of recycling damaged internal components), we screened a library of natural compounds reported to induce autophagy in vitro (in cells). […] Autophagy was assessed via fluorescent microplate assay and confirmed by microscopy in cultured human umbilical vein endothelial cells treated for 24 hours.

[2] = low (physiologically relevant) doses, ingredient alone (trehalose 5 mM)

Cn1c(=O)c2c(ncn2C)n(C)c1=O [caffeine]
Concentration at which the single agent induces autophagy (cells): 1 to 20 mM

C=C1CC[C@H](O)C/C1=C/C=C1\CCC[C@]2(C)[C@@H]([C@H](C)CCCC(C)C)CC[C@@H]12 [cholecalciferol]
Autophagy induction (relative microplate fluorescence) [1, 2]: had no effect on autophagy

O=C(O[C@@H]1Cc2c(O)cc(O)cc2O[C@@H]1c1cc(O)c(O)c(O)c1)c1cc(O)c(O)c(O)c1 [epigallocatechin gallate]
Autophagy induction (relative microplate fluorescence) [1, 2]: had no effect on autophagy

OC[C@H]1O[C@H](O[C@H]2O[C@H](CO)[C@@H](O)[C@H](O)[C@H]2O)[C@H](O)[C@@H](O)[C@@H]1O [trehalose]
Concentration at which the single agent induces autophagy (cells): 50 to 100 mM | Autophagy induction (relative microplate fluorescence) ([1]; established inducers at rapamycin 0.5 μM, trehalose 50 mM (high dose), FIG. 1A): significantly stimulated autophagy | Autophagy induction (relative microplate fluorescence) [1, 2]: had no effect on autophagy
